# Reference: PMC4321561, “Optimization of the cyclotide framework to improve cell penetration properties” (Frontiers in Pharmacology, 2015)
# Where a SMILES comes first, the peptide text is derived from it. Bridges are numbered along the chain shown (N, C = ends). Where no end group is shown, it is not given here.
# Assays:
# HeLa cells = experiment: Internalization of Alexa fluor 488-labeled peptides into HeLa cells (flow cytometry); assay type: cell-based, human; conditions: 8 μM Alexa fluor 488-labeled peptide, 1 h, 37°C, medium without serum, flow cytometry, 10,000 cells, mean ± SD of three independent experiments
# Serum stability = assay type: in vitro ADME; conditions: 300 μM stock diluted 10 times in 100% human serum (male AB plasma), 37°C, analytical HPLC, 215 nm, triplicate; for stability in human serum (in words): 0-24 h
# Protocol: The stability of peptides in human serum was examined using a protocol reported previously (Chan et al., [2011]). Briefly, stock solutions of peptides (300 μM) were diluted 10 times with pre-warmed 100% human serum isolated from male AB plasma (Sigma-Aldrich) and incubated at 37°C for 0, 1, 2, 3, 5, 8, 12 and 24 h. Controls with peptides in PBS were included. The reaction was stopped by denaturing the serum proteins with urea at a final concentration of 3 M at 4°C for 10 min, followed by precipitation of serum proteins with trichloroacetic acid at a final concentration of 7% (v/v) (4°C, 10 min) and centrifugation (17,000 g, 10 min). The supernatant of each sample was recovered and run on an analytical column using a linear gradient of 5–30% solvent B (acetonitrile 90% (v/v) with 0.045% (v/v) TFA in H2O) in solvent A (0.05% (v/v) TFA in H2O) over 25 min at a flow rate of 0.3 mL/min with monitoring at 215 nm. The elution profile of each peptide was identified by the PBS sample from 0 time point. The percentage of peptide remaining in serum-treated samples was determined by comparing the height of the peptide peak obtained at each time point with that of the peptide peak obtained at 0 time point. Each experiment was done in triplicate.
# Figure 4 Serum-stability of tested peptides. Percentage of peptide remaining upon incubation with human serum. The portion of serum-treated peptide remaining was determined by calculating the height of the respective elution peak in analytical-HPLC and comparing it with control without incubation. Data points are means ± SD of three experiments.
compound,measurement,setting,value
"NH2-YGRKKRRQRRRPPQG-COOH [TAT, gold standard linear cell-penetrating peptide]","Fluorescence signal of HeLa cells, before trypan blue (mean fluorescence emission normalized to TAT after trypan blue)",HeLa cells; ex 488 nm / em 530/30 nm,1.08 ± 0.07
same,"Fluorescence signal of HeLa cells, after trypan blue (mean fluorescence emission normalized to TAT after trypan blue)",HeLa cells; trypan blue 160 μg/mL,1.00 ± 0.17
"CC[C@H](C)[C@@H]1NC(=O)[C@@H]2CSSC[C@@H]3NC(=O)[C@H](C(C)C)NC(=O)CNC(=O)CNC(=O)[C@H](CC(=O)O)NC(=O)[C@H](CO)NC(=O)CNC(=O)[C@H](CO)NC(=O)CNC(=O)[C@@H]4CSSC[C@H](NC(=O)[C@H](CC(=O)O)NC(=O)[C@H](CO)NC(=O)[C@H](CC(=O)O)NC(=O)[C@H](CCCNC(=N)N)NC(=O)[C@H](CCCNC(=N)N)NC(=O)[C@H](CSSC[C@H](NC1=O)C(=O)N[C@@H](CCCCN)C(=O)NCC(=O)N[C@@H](CC(N)=O)C(=O)NCC(=O)N[C@@H](Cc1ccc(O)cc1)C(=O)N4)NC(=O)[C@H](CCCNC(=N)N)NC(=O)[C@H](CCCNC(=N)N)NC(=O)[C@H](CCCNC(=N)N)NC(=O)[C@H](C)NC(=O)[C@H](CCCNC(=N)N)NC(=O)[C@H](CCCNC(=N)N)NC(=O)CNC(=O)[C@H](Cc1ccc(O)cc1)NC3=O)C(=O)N1CCC[C@H]1C(=O)NCC(=O)N[C@@H](C)C(=O)N2 [MCo-CTP] (cyclo(ACICKGNGYCGSGSDGGVCYGRRARRRCRRDSDCPG); disulfide 2-19, 4-28, 10-34)",stability in human serum (in words),Serum stability,stable in human serum
same,"remaining at 12 h, 30 µM","Serum stability; 12 h, peak height vs 0 time point, read-out: peptide remaining intact after 12 h incubation in serum",> 60%
YGRKARRRRRR [CTP512],time to full degradation by proteases in serum,Serum stability; peak height vs 0 time point,≤ 1 h
"CC[C@H](C)[C@@H]1NC(=O)[C@@H]2CSSC[C@@H]3NC(=O)[C@H](C(C)C)NC(=O)CNC(=O)CNC(=O)[C@H](CC(=O)O)NC(=O)[C@H](CO)NC(=O)CNC(=O)[C@H](CO)NC(=O)CNC(=O)[C@@H]4CSSC[C@H](NC(=O)[C@H](CC(=O)O)NC(=O)[C@H](CO)NC(=O)[C@H](CC(=O)O)NC(=O)[C@H](CCCNC(=N)N)NC(=O)[C@H](CCCNC(=N)N)NC(=O)[C@H](CSSC[C@H](NC1=O)C(=O)N[C@@H](CCCCN)C(=O)NCC(=O)N[C@@H](CC(N)=O)C(=O)NCC(=O)N[C@@H](Cc1ccc(O)cc1)C(=O)N4)NC(=O)[C@H](CCCNC(=N)N)NC(=O)[C@H](CCCNC(=N)N)NC(=O)[C@H](CC(C)C)NC(=O)[C@H]([C@@H](C)CC)NC(=O)[C@H](CCCNC(=N)N)NC(=O)[C@@H]1CCCN1C3=O)C(=O)N1CCC[C@H]1C(=O)NCC(=O)N[C@@H](C)C(=O)N2 [MCo-RM1] (cyclo(ACICKGNGYCGSGSDGGVCPRILRRCRRDSDCPG); disulfide 2-19, 4-26, 10-32)",stability in human serum (in words),Serum stability,stable in human serum
